Tests used:
[1] = target: T1, human adenosine A2a receptor (Homo sapiens, UniProt P29274); test: Human adenosine A2a receptor radioligand binding assay ([125I]-AB-MECA, CHO cell membranes); conditions: for Selectivity A1/A2a: ratio obtained by dividing KiHA1 by KiHA2A; for Ki: recombinant human A2a receptor expressed in CHO cells, Ki from IC50 by Cheng-Prussoff equation, read-out: hA2a Ki
T1 construct: expressed in transfected cells; host or cells: CHO cells, semliki forest virus expression system; membrane preparation
T1 sequence (P29274 whole entry): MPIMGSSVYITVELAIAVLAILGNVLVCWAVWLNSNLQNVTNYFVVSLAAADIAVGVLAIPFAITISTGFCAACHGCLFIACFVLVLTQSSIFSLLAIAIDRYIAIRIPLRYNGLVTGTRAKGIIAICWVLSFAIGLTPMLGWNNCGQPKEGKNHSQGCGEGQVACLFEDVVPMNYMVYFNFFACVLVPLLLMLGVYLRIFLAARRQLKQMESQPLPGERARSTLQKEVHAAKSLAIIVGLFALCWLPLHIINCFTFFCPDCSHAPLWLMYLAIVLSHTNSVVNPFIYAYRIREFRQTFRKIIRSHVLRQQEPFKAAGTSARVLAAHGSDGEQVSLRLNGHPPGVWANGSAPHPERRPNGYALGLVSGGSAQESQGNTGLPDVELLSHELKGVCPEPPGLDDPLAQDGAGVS
Method: Human Adenosine A2a Receptor
The gene encoding human adenosine A2a receptor was recombinantly introduced and expressed in chinese hamster ovary (CHO) cells using the semliki forest virus expression system. Cells were harvested, washed twice by centrifugation, homogenized and again washed by centrifugation. The final washed membrane pellet was suspended in a Tris (50 mM) buffer containing 120 mM NaCl, 5 mM KCl, 2 mM CaCl2 and 10 mM MgCl2 (pH 7.4) (buffer A). The [^125I]-AB-MECA ([N(6)-(4-amino-3-iodobenzyl)-5′-N-methylcarbamoyl-adenosine]; 0.05 nM) binding assay was carried out in 96-well a plates in the presence of 20 μg of membrane protein and 0.1 U adenosine deaminase in a final volume of […] of buffer A. Non-specific binding was defined using xanthine amine congener (XAC; 2 μM). Compounds were tested at 10 concentrations from 10 μM-0.3 nM. All assays were conducted in duplicate and repeated at least two times. Assay plates were incubated for 1 hour at room temperature before filtration through Whatman Unifilter GF/C 96-well filter plates (preincubated with 0.3% polyethyleneimine). Filters were washed 3 times with 0.3 ml of cold (4° C.) Tris (50 mM)—NaC […]
[…] 1 (120 mM) buffer (pH 7.4). Microscint 40 scintillation fluid (50 μl) was added to each well and the wells sealed. After gentle shaking for 20 min, plates were counted on a Packard Topcount scintillation counter. IC50 values were calculated using a non-linear curve fitting program and Ki values calculated using the Cheng-Prussoff equation.
(§1) In accordance with the invention, it has been shown that compounds of formula I have a high affinity toward the A2A receptor. In Table I below specific values of prepared compounds are described, Values of KiHA2A and KiHA1 are shown in Table I for compounds of formula 1. A low Ki value is indicative of a particular compound's high affinity toward a particular receptor and conversely a higher Ki value is indicative of a lower affinity for that compound toward a particular receptor. […] Generally speaking, compounds that have a higher HA1/HA2A ratio are able to give a substantially complete blockade of the HA2A receptor without substantially affecting the A1 receptor.

[2] = target: T2, human adenosine A1 receptor (Homo sapiens, UniProt P30542); test: Human adenosine A1 receptor radioligand binding assay ([3H]-DPCPX, SPA, CHO cell membranes); conditions: recombinant human A1 receptor expressed in CHO cells; [3H]-DPCPX 0.6 nM; Ki from IC50 by Cheng-Prussoff equation; read-out: hA1 Ki
T2 construct: expressed in transfected cells; host or cells: CHO cells, semliki forest virus expression system; membrane preparation
T2 sequence (P30542 1-326): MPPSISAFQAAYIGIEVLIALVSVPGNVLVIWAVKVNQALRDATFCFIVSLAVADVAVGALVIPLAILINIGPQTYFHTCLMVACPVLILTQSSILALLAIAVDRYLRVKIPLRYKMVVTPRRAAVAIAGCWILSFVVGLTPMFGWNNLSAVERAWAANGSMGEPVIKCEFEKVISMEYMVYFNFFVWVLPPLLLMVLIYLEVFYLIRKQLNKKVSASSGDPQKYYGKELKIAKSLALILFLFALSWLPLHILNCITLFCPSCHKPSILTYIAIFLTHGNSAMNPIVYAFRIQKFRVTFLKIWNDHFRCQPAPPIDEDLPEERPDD
Method: Human Adenosine A^1 Receptor
The gene encoding human adenosinie A1 receptor was recombinantly introduced and expressed in chinese hamster ovary (CHO) cells using the semliki forest virus expression system. Cells were harvested, washed twice by centrifugation, homogenized and again washed by centrifugation. The final washed membrane pellet was suspended in a Tris (50 mM) buffer containing 120 mM NaCl, 5 mM KCl, 2 mM CaCl2 and 10 mM MgCl2 (pH 7.4) (buffer A). The [^3H]-DPCPX (([propyl-3H]8-cyclopentyl-1,3-dipropyxanthine); 0.6 nM) binding assay was carried out in 96-well plates in the presence of 2.5 μg of membrane protein, 0.5 mg of Ysi-poly-1-lysine SPA beads and 0.1 U adenosine deaminase in a final volume of 200 μl of buffer A. Non-specific binding was defined using xanthine amine congener (XAC; 2 μM). Compounds were tested at 10 concentrations from 10 μM-0.3 nM. All assays were conducted in duplicate and repeated at least two times. Assay plates were incubated for 1 hour at room temperature before centrifugation and then bound ligand determined using a Packard Topcount scintillation counter. IC50 values were calculated using a non-linear curve fitting program and Ki values calculated using the Cheng-Prussoff equation.
as §1

## COc1ccc(-c2ccccc2)n2nc(NC(=O)c3ccc(Br)cc3)nc12 [Example 9, 4-Bromo-N-(8-methoxy-5-phenyl-[1,2,4]triazolo[1,5-a]pyridin-2-yl)-benzamide]
[1]
  Selectivity A1/A2a: 22.4
  Ki: 102 nM
[2]
  Ki: 2290 nM

## CCc1ccc(C(=O)Nc2nc3c(OC)ccc(-c4ccccc4)n3n2)cc1 [Example 10, 4-Ethyl-N-(8-methoxy-5-phenyl-[1,2,4]triazolo[1,5-a]pyridin-2-yl)-benzamide]
[1]
  Selectivity A1/A2a: 11.5
  Ki: 173 nM
[2]
  Ki: 2000 nM

## COc1cccc(C(=O)Nc2nc3c(OC)ccc(-c4ccccc4)n3n2)c1 [Example 11, 3-Methoxy-N-(8-methoxy-5-phenyl-[1,2,4]triazolo[1,5-a]pyridin-2-yl)-benzamide]
[1]
  Selectivity A1/A2a: 23.4
  Ki: 159 nM
[2]
  Ki: 3710 nM

## COc1ccc(-c2cccs2)n2nc(NC(=O)c3ccccc3)nc12 [Example 12, N-(8-Methoxy-5-thiophen-2-yl-[1,2,4]triazolo[1,5-a]pyridin-2-yl)-benzamide]
[1]
  Selectivity A1/A2a: 19.3
  Ki: 112 nM
[2]
  Ki: 2150 nM

## COc1ccc(-c2cccs2)n2nc(NC(=O)c3ccccc3Cl)nc12 [Example 13, 2-Chloro-N-(8-methoxy-5-thiophen-2-yl-[1,2,4]triazolo[1,5-a]pyridin-2-yl)-benzamide]
[1]
  Selectivity A1/A2a: 9.8
  Ki: 230 nM
[2]
  Ki: 2250 nM

## COc1ccc(-c2cccs2)n2nc(NC(=O)c3cccc(Cl)c3)nc12 [Example 14, 3-Chloro-N-(8-methoxy-5-thiophen-2-yl-[1,2,4]triazolo[1,5-a]pyridin-2-yl)-benzamide]
[1]
  Selectivity A1/A2a: 17.4
  Ki: 142 nM
[2]
  Ki: 2480 nM

## COc1ccc(-c2cccs2)n2nc(NC(=O)c3ccc(Cl)cc3)nc12 [Example 15, 4-Chloro-N-(8-methoxy-5-thiophen-2-yl-[1,2,4]triazolo[1,5-a]pyridin-2-yl)-benzamide]
[1]
  Selectivity A1/A2a: 25.6
  Ki: 114 nM
[2]
  Ki: 2910 nM

## COc1ccc(C(=O)Nc2nc3c(OC)ccc(-c4cccs4)n3n2)cc1 [Example 16, 4-Methoxy-N-(8-methoxy-5-thiophen-2-yl-[1,2,4]triazolo[1,5-a]pyridin-2-yl)-benzamide]
[1]
  Selectivity A1/A2a: 14.2
  Ki: 238 nM
[2]
  Ki: 3380 nM

## COc1ccc(-c2cccs2)n2nc(NC(=O)c3ccccc3Br)nc12 [Example 17, 2-Bromo-N-(8-methoxy-5-thiophen-2-yl-[1,2,4]triazolo[1,5-a]pyridin-2-yl)-benzamide]
[1]
  Selectivity A1/A2a: 12.0
  Ki: 208 nM
[2]
  Ki: 2490 nM

## CCc1ccc(C(=O)Nc2nc3c(OC)ccc(-c4cccs4)n3n2)cc1 [Example 18, 4-Ethyl-N-(8-methoxy-5-thiophen-2-yl-[1,2,4]triazolo[1,5-a]pyridin-2-yl)-benzamide]
[1]
  Selectivity A1/A2a: 24.2
  Ki: 136 nM
[2]
  Ki: 3300 nM

## COc1cccc(C(=O)Nc2nc3c(OC)ccc(-c4cccs4)n3n2)c1 [Example 19, 3-Methoxy-N-(8-methoxy-5-thiophen-2-yl-[1,2,4]triazolo[1,5-a]pyridin-2-yl)-benzamide]
[1]
  Selectivity A1/A2a: 24.6
  Ki: 201 nM
[2]
  Ki: 4940 nM

## COc1ccc(-c2cccs2)n2nc(NC(=O)c3cccc(CCl)c3)nc12 [Example 20, 3-Chloromethyl-N-(8-methoxy-5-thiophen-2-yl-[1,2,4]triazolo[1,5-a]pyridin-2-yl)-benzamide]
[1]
  Selectivity A1/A2a: 15.9
  Ki: 208 nM
[2]
  Ki: 3300 nM

## COc1ccc(-c2ccccc2)n2nc(NC(=O)c3ccc(C)s3)nc12 [Example 23, 5-Methyl-thiophene-2-carboxylic acid(8-methoxy-5-phenyl-[1,2,4]triazolo[1,5-a]pyridin-2-yl)-amide]
[1]
  Selectivity A1/A2a: 43.4
  Ki: 65.1 nM
[2]
  Ki: 2830 nM

## COc1ccc(-c2ccccc2F)n2nc(NC(=O)c3ccc(C)s3)nc12 [Example 24, 5-Methyl-thiophene-2-carboxylic acid [5-(2-fluoro-phenyl)-8-methoxy-[1,2,4]triazolo[1,5-a]pyridin-2-yl]-amide]
[1]
  Selectivity A1/A2a: 19.5
  Ki: 134 nM
[2]
  Ki: 2610 nM

## COc1ccc(-c2cccc(Cl)c2)n2nc(NC(=O)c3ccc(C)s3)nc12 [Example 25, 5-Methyl-thiophene-2-carboxylic acid [5-(3-chloro-phenyl)-8-methoxy-[1,2,4]triazolo[1,5-a]pyridin-2-yl]-amide]
[1]
  Selectivity A1/A2a: 12.7
  Ki: 165 nM
[2]
  Ki: 2090 nM

## COc1ccc(-c2ccc(Cl)cc2)n2nc(NC(=O)c3ccc(C)s3)nc12 [Example 26, 5-Methyl-thiophene-2-carboxylic acid [5-(4-chloro-phenyl)-8-methoxy-[1,2,4]triazolo[1,5-a]pyridin-2-yl]-amide]
[1]
  Selectivity A1/A2a: 11.1
  Ki: 256 nM
[2]
  Ki: 2860 nM

## COc1cccc(-c2ccc(OC)c3nc(NC(=O)c4ccc(C)s4)nn23)c1 [Example 27, 5-Methyl-thiophene-2-carboxylic acid [8-methoxy-5-(3-methoxy-phenyl)-[1,2,4]triazolo[1,5-a]pyridin-2-yl]-amide]
[1]
  Selectivity A1/A2a: 16.5
  Ki: 107 nM
[2]
  Ki: 1760 nM

## COc1ccc(-c2ccc(OC)c3nc(NC(=O)c4ccc(C)s4)nn23)cc1 [Example 28, 5-Methyl-thiophene-2-carboxylic acid [8-methoxy-5-(4-methoxy-phenyl) [1,2,4]triazolo[1,5-a]pyridin-2-yl]-amide]
[1]
  Selectivity A1/A2a: 36.5
  Ki: 143 nM
[2]
  Ki: 5210 nM

## COc1ccc(-c2ccsc2)n2nc(NC(=O)c3ccc(C)s3)nc12 [Example 29, 5-Methyl-thiophene-2-carboxylic acid (8-methoxy-5-thiophen-3-yl-[1,2,4]triazolo[1,5-a]pyridin-2-yl)-amide]
[1]
  Selectivity A1/A2a: 24.2
  Ki: 71.1 nM
[2]
  Ki: 1720 nM

## CCOc1cccc(-c2ccc(OC)c3nc(NC(=O)c4ccc(C)s4)nn23)c1 [Example 30, 5-Methyl-thiophene-2-carboxylic acid [5-(3-ethoxy-phenyl)-8-methoxy-[1,2,4]triazolo[1,5-a]pyridin-2-yl]-amide]
[1]
  Selectivity A1/A2a: 18.6
  Ki: 72.9 nM
[2]
  Ki: 1360 nM

## COc1ccc(-c2ccc(Cl)s2)n2nc(NC(=O)c3ccc(C)s3)nc12 [Example 31, 5-Methyl-thiophene-2-carboxylic acid [5-(5-chloro-thiophen-2-yl)-8-methoxy-[1,2,4]triazolo[1,5-a]pyridin-2-yl]-amide]
[1]
  Selectivity A1/A2a: 39.6
  Ki: 29.5 nM
[2]
  Ki: 1170 nM

## COc1ccc(-c2ccccc2F)n2nc(NC(=O)c3ccc(F)cc3)nc12 [Example 32, 4-Fluoro-N-[5-(2-fluorophenyl)-8-methoxy-[1,2,4]triazolo[1,5-a]pyridin-2-yl]-benzamide]
[1]
  Selectivity A1/A2a: 24.6
  Ki: 229 nM
[2]
  Ki: 5640 nM
